Drawing on ChEMBL document CHEMBL2163241, “Human neutrophil elastase phosphonic inhibitors with improved potency of action” (J Med Chem, 2012), this text covers inhibition and Ratio for 29 compounds.

The nature of assay [1]: Inhibition of trypsin at 25 uM assessed as Kinact/Ki ratio incubated for 15 mins by spectrofluorometry.
A short description of assay [2]: Inhibition of chymotrypsin at 25 uM assessed as Kinact/Ki ratio incubated for 15 mins by spectrofluorometry.
Assay [3] concerns the target Pancreatic elastase (Sus scrofa) (UniProt P08419+P00772). Description: Inhibition of porcine pancreatic elastase at 25 uM assessed as Kinact/Ki ratio incubated for 15 mins by spectrofluorometry. In kind it is protein assay.
Assay [4] concerns the target T1, Neutrophil elastase (Homo sapiens) (UniProt P08246).
T1 sequence (whole entry): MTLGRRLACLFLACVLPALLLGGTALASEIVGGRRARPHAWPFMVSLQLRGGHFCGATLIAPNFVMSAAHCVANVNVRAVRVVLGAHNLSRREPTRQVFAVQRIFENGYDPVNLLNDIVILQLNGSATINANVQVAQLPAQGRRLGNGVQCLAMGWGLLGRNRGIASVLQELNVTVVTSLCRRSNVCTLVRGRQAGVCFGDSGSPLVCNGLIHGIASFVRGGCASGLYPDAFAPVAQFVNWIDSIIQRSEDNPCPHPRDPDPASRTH
Description: Inhibition of human leukocyte elastase at 25 uM assessed as Kinact/Ki ratio incubated for 15 mins by spectrofluorometry.

For assay [5], the species on record is Homo sapiens. Description: Selectivity ratio of Kinact/Ki ratio for chymotrypsin to Kinact/Ki ratio for human leukocyte elastase.

`CC(C)C(NC(=O)[C@@H]1CCCN1C(=O)[C@@H](NC(=O)OC(C)(C)C)C(C)C)P(=O)(Oc1ccc(C(C)(C)C)cc1)Oc1ccc(C(C)(C)C)cc1` (mixture of isomers): the inhibition in assay [1] and in assay [2] was less than 5% in each case. For the same compound, the Ratio stood at 700 M⁻¹ s⁻¹ in assay [3] and 3450 M⁻¹ s⁻¹ in assay [4].
`CC(C)C(NC(=O)[C@@H]1CCCN1C(=O)[C@@H](NC(=O)OC(C)(C)C)C(C)C)P(=O)(Oc1ccc(Cl)cc1)Oc1ccc(Cl)cc1` (mixture of isomers): the Ratio in assay [1] is less than 50 M⁻¹ s⁻¹; in assay [2] it was 250 M⁻¹ s⁻¹; in assay [3], 5000 M⁻¹ s⁻¹; in assay [4], 92100 M⁻¹ s⁻¹.
In the same order, the values of `CC(C)CC(NC(=O)[C@@H]1CCCN1C(=O)[C@@H](NC(=O)OC(C)(C)C)C(C)C)P(=O)(Oc1ccc(Cl)cc1)Oc1ccc(Cl)cc1` (mixture of isomers) are less than 50 M⁻¹ s⁻¹, 18100 M⁻¹ s⁻¹, 12800 M⁻¹ s⁻¹ and 3400 M⁻¹ s⁻¹.
For `CC(C)CC(NC(=O)[C@@H]1CCCN1C(=O)[C@@H](NC(=O)OC(C)(C)C)C(C)C)P(=O)(Oc1ccccc1)Oc1ccccc1` (mixture of isomers), the Ratio in assay [1] is less than 50 M⁻¹ s⁻¹; in assay [2] it was 1900 M⁻¹ s⁻¹; in assay [3] it was 1300 M⁻¹ s⁻¹; in assay [4], 325 M⁻¹ s⁻¹.
`CC(C)[C@H](NC(=O)OC(C)(C)C)C(=O)N1CCC[C@H]1C(=O)NC(C)P(=O)(Oc1ccc(C(C)(C)C)cc1)Oc1ccc(C(C)(C)C)cc1` (mixture of isomers): the inhibition (as a rule, the share of the control response that was lost under treatment) in assay [1] was less than 5%. In addition, the Ratio in assay [2], in assay [3] and in assay [4] was less than 50 M⁻¹ s⁻¹ each time.
For `CC(C)c1ccc(OP(=O)(Oc2ccc(C(C)C)cc2)C(C)NC(=O)[C@@H]2CCCN2C(=O)[C@@H](NC(=O)OC(C)(C)C)C(C)C)cc1` (mixture of isomers), the inhibition in assay [1] was less than 5%. Besides, the Ratio in assay [2] was less than 50 M⁻¹ s⁻¹; in assay [3] it was 300 M⁻¹ s⁻¹; in assay [4], less than 50 M⁻¹ s⁻¹.
`CC(C)c1ccc(OP(=O)(Oc2ccc(C(C)C)cc2)C(NC(=O)[C@@H]2CCCN2C(=O)[C@@H](NC(=O)OC(C)(C)C)C(C)C)C(C)C)cc1` (mixture of isomers): the Ratio was less than 50 M⁻¹ s⁻¹ in assay [1], less than 50 M⁻¹ s⁻¹ in assay [2], 2000 M⁻¹ s⁻¹ in assay [3] and 4200 M⁻¹ s⁻¹ in assay [4].
Take `CCC(NC(=O)[C@@H]1CCCN1C(=O)[C@@H](NC(=O)OC(C)(C)C)C(C)C)P(=O)(Oc1ccc(C(C)C)cc1)Oc1ccc(C(C)C)cc1` (mixture of isomers): the Ratio in assay [1] was less than 50 M⁻¹ s⁻¹; in assay [2], less than 50 M⁻¹ s⁻¹; in assay [3] it was 580 M⁻¹ s⁻¹; in assay [4], less than 50 M⁻¹ s⁻¹.
Consider `CCC(NC(=O)[C@@H]1CCCN1C(=O)[C@@H](NC(=O)OC(C)(C)C)C(C)C)P(=O)(Oc1ccc(C)c(C)c1)Oc1ccc(C)c(C)c1` (mixture of isomers), for which the Ratio in assay [1] was less than 50 M⁻¹ s⁻¹; in assay [2] it was less than 50 M⁻¹ s⁻¹; in assay [3], 1250 M⁻¹ s⁻¹; in assay [4] it was 460 M⁻¹ s⁻¹.
Take `CCC(NC(=O)[C@@H]1CCCN1C(=O)[C@@H](NC(=O)OC(C)(C)C)C(C)C)P(=O)(Oc1ccc(OC)cc1)Oc1ccc(OC)cc1` (mixture of isomers): the Ratio in assay [1] was less than 50 M⁻¹ s⁻¹; in assay [2] it was less than 50 M⁻¹ s⁻¹; in assay [3] it was 9900 M⁻¹ s⁻¹; in assay [4], 11000 M⁻¹ s⁻¹.
Turning to `CCC(NC(=O)[C@@H]1CCCN1C(=O)[C@@H](NC(=O)OC(C)(C)C)C(C)C)P(=O)(Oc1ccc(SC)cc1)Oc1ccc(SC)cc1` (mixture of isomers), the Ratio in assay [1] came to 460 M⁻¹ s⁻¹; in assay [2] it was 365 M⁻¹ s⁻¹; in assay [3], 60100 M⁻¹ s⁻¹; in assay [4], 165000 M⁻¹ s⁻¹.
In the case of `CCC(NC(=O)[C@@H]1CCCN1C(=O)[C@@H](NC(=O)OC(C)(C)C)C(C)C)P(=O)(Oc1ccccc1)Oc1ccccc1` (mixture of isomers), the Ratio was less than 50 M⁻¹ s⁻¹ in assay [1], less than 50 M⁻¹ s⁻¹ in assay [2], 12700 M⁻¹ s⁻¹ in assay [3] and 7100 M⁻¹ s⁻¹ in assay [4].
Regarding `CCCC(NC(=O)[C@@H]1CCCN1C(=O)[C@@H](NC(=O)OC(C)(C)C)C(C)C)P(=O)(Oc1ccc(C(C)(C)C)cc1)Oc1ccc(C(C)(C)C)cc1` (mixture of isomers), the inhibition in assay [1] and in assay [2] was less than 5% each time. Moreover, the Ratio in assay [3] and in assay [4] was less than 50 M⁻¹ s⁻¹ each time.
As to `CCCC(NC(=O)[C@@H]1CCCN1C(=O)[C@@H](NC(=O)OC(C)(C)C)C(C)C)P(=O)(Oc1ccc(SC)cc1)Oc1ccc(SC)cc1` (mixture of isomers), the Ratio in assay [5] was 20; in assay [1] it was 420 M⁻¹ s⁻¹; in assay [2], 2800 M⁻¹ s⁻¹; in assay [3], 54800 M⁻¹ s⁻¹; in assay [4], 56200 M⁻¹ s⁻¹.
As for `CCCC(NC(=O)[C@@H]1CCCN1C(=O)[C@@H](NC(=O)OC(C)(C)C)C(C)C)P(=O)(Oc1ccccc1)Oc1ccccc1` (mixture of isomers), the Ratio is less than 50 M⁻¹ s⁻¹ in assay [1], 140 M⁻¹ s⁻¹ in assay [2], 10900 M⁻¹ s⁻¹ in assay [3] and 2600 M⁻¹ s⁻¹ in assay [4].
As to `CCCCC(NC(=O)[C@@H]1CCCN1C(=O)[C@@H](NC(=O)OC(C)(C)C)C(C)C)P(=O)(Oc1ccc(SC)cc1)Oc1ccc(SC)cc1` (mixture of isomers), the Ratio in assay [5] is 2; in assay [1], less than 50 M⁻¹ s⁻¹; in assay [2], 4250 M⁻¹ s⁻¹; in assay [3], 9700 M⁻¹ s⁻¹; in assay [4], 8100 M⁻¹ s⁻¹.
On to `CCCCC(NC(=O)[C@@H]1CCCN1C(=O)[C@@H](NC(=O)OC(C)(C)C)C(C)C)P(=O)(Oc1ccccc1)Oc1ccccc1` (mixture of isomers), for which the Ratio in assay [1] was less than 50 M⁻¹ s⁻¹; in assay [2] it was 400 M⁻¹ s⁻¹; in assay [3], 1700 M⁻¹ s⁻¹; in assay [4], 650 M⁻¹ s⁻¹.
For `CCc1ccc(OP(=O)(Oc2ccc(CC)cc2)C(C)NC(=O)[C@@H]2CCCN2C(=O)[C@@H](NC(=O)OC(C)(C)C)C(C)C)cc1` (mixture of isomers), the inhibition in assay [1] is less than 5%. For the same compound, the Ratio was less than 50 M⁻¹ s⁻¹ in assay [2], 1100 M⁻¹ s⁻¹ in assay [3] and 870 M⁻¹ s⁻¹ in assay [4].
Consider `CCc1ccc(OP(=O)(Oc2ccc(CC)cc2)C(CC)NC(=O)[C@@H]2CCCN2C(=O)[C@@H](NC(=O)OC(C)(C)C)C(C)C)cc1` (mixture of isomers), for which the Ratio is less than 50 M⁻¹ s⁻¹ in assay [1], less than 50 M⁻¹ s⁻¹ in assay [2], 4210 M⁻¹ s⁻¹ in assay [3] and 1380 M⁻¹ s⁻¹ in assay [4].
Consider `CCc1ccc(OP(=O)(Oc2ccc(CC)cc2)C(NC(=O)[C@@H]2CCCN2C(=O)[C@@H](NC(=O)OC(C)(C)C)C(C)C)C(C)C)cc1` (mixture of isomers), for which the inhibition in assay [1] and in assay [2] was less than 5% in each case. Moreover, the Ratio in assay [3] worked out at 6000 M⁻¹ s⁻¹; in assay [4], 6800 M⁻¹ s⁻¹.
As to `COc1ccc(OP(=O)(Oc2ccc(OC)cc2)C(CC(C)C)NC(=O)[C@@H]2CCCN2C(=O)[C@@H](NC(=O)OC(C)(C)C)C(C)C)cc1` (mixture of isomers), the Ratio in assay [1] was less than 50 M⁻¹ s⁻¹; in assay [2], 1700 M⁻¹ s⁻¹; in assay [3], 960 M⁻¹ s⁻¹; in assay [4] it was 270 M⁻¹ s⁻¹.
The corresponding values for `COc1ccc(OP(=O)(Oc2ccc(OC)cc2)C(NC(=O)[C@@H]2CCCN2C(=O)[C@@H](NC(=O)OC(C)(C)C)C(C)C)C(C)C)cc1` (mixture of isomers) are less than 50 M⁻¹ s⁻¹, less than 50 M⁻¹ s⁻¹, 19500 M⁻¹ s⁻¹ and 42700 M⁻¹ s⁻¹.
In the same order, the values of `CSc1ccc(OP(=O)(Oc2ccc(SC)cc2)C(C)NC(=O)[C@@H]2CCCN2C(=O)[C@@H](NC(=O)OC(C)(C)C)C(C)C)cc1` (mixture of isomers) are less than 50 M⁻¹ s⁻¹, less than 50 M⁻¹ s⁻¹, 11400 M⁻¹ s⁻¹ and 3500 M⁻¹ s⁻¹.
As to `CSc1ccc(OP(=O)(Oc2ccc(SC)cc2)C(CC(C)C)NC(=O)[C@@H]2CCCN2C(=O)[C@@H](NC(=O)OC(C)(C)C)C(C)C)cc1` (mixture of isomers), the Ratio in assay [1] was found to be 280 M⁻¹ s⁻¹; in assay [2] it was 21900 M⁻¹ s⁻¹; in assay [3], 11200 M⁻¹ s⁻¹; in assay [4], 4100 M⁻¹ s⁻¹.
The corresponding values for `CSc1ccc(OP(=O)(Oc2ccc(SC)cc2)C(NC(=O)[C@@H]2CCCN2C(=O)CNC(=O)OC(C)(C)C)C(C)C)cc1` (mixture of isomers) are less than 50 M⁻¹ s⁻¹, less than 50 M⁻¹ s⁻¹, 5100 M⁻¹ s⁻¹ and 35000 M⁻¹ s⁻¹.
Turning to `CSc1ccc(OP(=O)(Oc2ccc(SC)cc2)C(NC(=O)[C@@H]2CCCN2C(=O)CNC(=O)OCc2ccccc2)C(C)C)cc1` (mixture of isomers), the Ratio in assay [1] is less than 50 M⁻¹ s⁻¹; in assay [2] it was 200 M⁻¹ s⁻¹; in assay [3] it was 1200 M⁻¹ s⁻¹; in assay [4], 39000 M⁻¹ s⁻¹.
Consider `CSc1ccc(OP(=O)(Oc2ccc(SC)cc2)C(NC(=O)[C@@H]2CCCN2C(=O)[C@@H](C)NC(=O)OC(C)(C)C)C(C)C)cc1` (mixture of isomers), for which the Ratio is less than 50 M⁻¹ s⁻¹ in assay [1], less than 50 M⁻¹ s⁻¹ in assay [2], 900 M⁻¹ s⁻¹ in assay [3] and 39400 M⁻¹ s⁻¹ in assay [4].
As for `CSc1ccc(OP(=O)(Oc2ccc(SC)cc2)C(NC(=O)[C@@H]2CCCN2C(=O)[C@H](C)NC(=O)OCc2ccccc2)C(C)C)cc1` (mixture of isomers), the Ratio was less than 50 M⁻¹ s⁻¹ in assay [1], 1500 M⁻¹ s⁻¹ in assay [2], 12000 M⁻¹ s⁻¹ in assay [3] and 144000 M⁻¹ s⁻¹ in assay [4].
Consider `CSc1ccc(OP(=O)(Oc2ccc(SC)cc2)C(NC(=O)[C@@H]2CCCN2C(=O)[C@H](CC(C)C)NC(=O)OCc2ccccc2)C(C)C)cc1` (mixture of isomers), for which, in assay [1], the inhibition was less than 5%. The Ratio in assay [2] was determined as 800 M⁻¹ s⁻¹; in assay [3], 1000 M⁻¹ s⁻¹; in assay [4] it was 86200 M⁻¹ s⁻¹.
